According to US20250333709A1, “BRAIN ENDOTHELIAL CELLS AND METHODS OF MAKING” (President and Fellows of Harvard College, priority 2022, published 2025):
Read-outs that look alike come from different tables or passages of the source.

Experiments:
[1] = test system: iPSC-ECs; assay: mRNA levels of brain EC genes in iPSC-ECs with HDAC inhibitor, Wnt pathway activator and PKC activator; assay type: cell-based, human; conditions: 48 hours, presence and absence of quisinostat 10 nM, Chir99021 5 uM, WNT3A 100 ng/ml, IndoV 100 nM, PMA 100 nM, FIG. 5C
Experimental: FIGS. 5A-5C show overexpression of brain EC-specific transcription factors and inhibition of HDAC induce a subset of brain EC-enriched genes. […] Chir99021, 5 uM; WNT3A, 100 ng/ml; IndoV, 100 nM; PMA, 100 nM, Q, quisinostate 10 nM; 48 hours. *, P<0.05 vs. Control; **, P<0.01 vs. Control.

[2] = test system: iPSC-ECs; conditions: 10 uM for 2 days, FIG. 4A, 4C
Experimental: Representative immunostaining images of iPSC-ECs after treatment with TGFBR1 inhibitor RepSox (10 uM, FIG. 4A) and human recombinant TGF beta (FIG. 4B). […] All compounds were treated at 10 uM concentrations for 2 days. […] Scale bars, 100 um.

[3] = test system: iPSC-ECs; assay: Brain EC gene regulation in iPSC-ECs exposed to a combination of WNT3A, CNTF and RepSox; assay type: cell-based, human; conditions: FIG. 4D
[4] = test system: iPSC-ECs; assay: GLUT1 and PLVAP expression in iPSC-ECs after Wnt signaling activation (immunostaining, mRNA); assay type: cell-based, human; conditions: vs. EGM2, FIG. 2A-2C
Text: CTNNB1::GFP iPSC line (Allen Cell, AICS-0058-067iPSC) was used to visualize subcellular localization of beta-catenin protein. *, P<0.05 vs. EGM2; **, P<0.01 vs. EGM2. Scale bars, 100 um.

[5] = test system: iPSC-ECs; assay: CLDN5 expression in CNTF-treated iPSC-ECs (immunostaining); assay type: cell-based, human; conditions: CNTF 20 ng/ml, CNTFRa 100 ng/ml, FIG. 3
Experimental: FIG. 3A illustrates iPSC-ECs exposed to either fresh astrocyte medium (AM) or astrocyte-conditioned medium (ACM). Conditioned medium was collected for 48 hours. Both AM and ACM were treated as 1:1 mixture with EC medium (EGM2). […] Human recombinant ciliary neurotrophic factor (CNTF), 20 ng/ml; human recombinant CNTF receptor alpha (CNTFRa), 100 ng/ml. […] PM and PCM were treated as 1:1 mixture with EGM2 for 2 days. […] Scale bars, 100 um.

## CC(C)[C@H]1C(=O)N[C@H](CO)Cc2c[nH]c3cccc(c23)N1C [IndoV]
[1]
  expression of ABCB1 (mRNA): induce
  expression of MFSD2A (mRNA): induce

## CCCCCCCCCCCCCC(=O)O[C@@H]1[C@@H](C)[C@@]2(O)[C@@H](C=C(CO)C[C@]3(O)C(=O)C(C)=C[C@@H]23)[C@@H]2C(C)(C)[C@]12OC(C)=O [PMA]
[1]
  expression of ABCB1 (mRNA): induce
  expression of MFSD2A (mRNA): induce

## Cc1cccc(-c2[nH]ncc2-c2ccc3ncccc3n2)n1 [RepSox]
[2]
  CLDN5 expression: increase
[3]
  effect on brain EC gene regulation: additive effect

## Cc1c[nH]c(-c2cnc(NCCNc3ccc(C#N)cn3)nc2-c2ccc(Cl)cc2Cl)n1 [Chir99021]
[1]
  expression of ABCB1 (mRNA): induce
  expression of MFSD2A (mRNA): induce
[4]
  GLUT1 expression: upregulates
  PLVAP expression: downregulates

B1: ciliary neurotrophic factor (protein, UniProt P26441 1-200, looked up)
Ciliary neurotrophic factor: MAFTEHSPLTPHRRDLCSRSIWLARKIRSDLTALTESYVKHQGLNKNINLDSADGMPVASTDQWSELTEAERLQENLQAYRTFHVLLARLLEDQQVHFTPTEGDFHQAIHTLLLQVAAFAYQIEELMILLEYKIPRNEADGMPINVGDGGLFEKKLWGLKVLQELSQWTVRSIHDLRFISSHQTGIPARGSHYIANNKKM
notes: Human recombinant ciliary neurotrophic factor, 20 ng/ml
[3]
  effect on brain EC gene regulation: additive effect
[5]
  CLDN5 expression: increases

B2: WNT3A: Wnt ligand used at 100 ng/ml to activate Wnt signaling in iPSC-ECs (protein, UniProt P56704 19-352, looked up)
Protein Wnt-3a: SYPIWWSLAVGPQYSSLGSQPILCASIPGLVPKQLRFCRNYVEIMPSVAEGIKIGIQECQHQFRGRRWNCTTVHDSLAIFGPVLDKATRESAFVHAIASAGVAFAVTRSCAEGTAAICGCSSRHQGSPGKGWKWGGCSEDIEFGGMVSREFADARENRPDARSAMNRHNNEAGRQAIASHMHLKCKCHGLSGSCEVKTCWWSQPDFRAIGDFLKDKYDSASEMVVEKHRESRGWVETLRPRYTYFKVPTERDLVYYEASPNFCEPNPETGSFGTRDRTCNVSSHGIDGCDLLCCGRGHNARAERRREKCRCVFHWCCYVSCQECTRVYDVHTCK
[3]
  effect on brain EC gene regulation: additive effect
[1]
  expression of ABCB1 (mRNA): induce
  expression of MFSD2A (mRNA): induce
[4]
  GLUT1 expression: upregulates
  PLVAP expression: downregulates
